From ChEMBL document CHEMBL5029194, “Discovery and Optimization of 7-Alkylidenyltetrahydroindazole-Based Acylsulfonamide EP3 Antagonists” (ACS Med Chem Lett, 2022) come the findings set out here.

Broadly, the Cmax is the maximum level reached in the sampled fluid or tissue. For orientation: AUC(0-t) means exposure summed from dosing to a finite time, without extrapolation to infinity. What is called clearance is the volume of plasma or blood freed of the substance per unit of time. A lower clearance goes with a low capacity for elimination. In general, bioavailability refers to dose-corrected exposure relative to a reference, in per cent. A higher bioavailability goes with good availability. By half-life is commonly meant how long it takes for the measured level to halve. As usually defined, the Ki is the equilibrium dissociation constant of an inhibitor or competing ligand from its target.

Active and inactive are the calls of the source. The rule behind the calls is not given here.

Data set [1] in a line: Cmax in Sprague-Dawley rat at 10 mg/kg, po measured up to 7 hrs by LC-MS-MS analysis. Type of data set: ADME, organism-based. The settings on record: in vivo. Details: route oral, dose 10 mg/kg, time <=7.
Data set [2] in a line: AUClast in Sprague-Dawley rat at 10 mg/kg, po measured up to 7 hrs by LC-MS-MS analysis. Details: route oral, dose 10 mg/kg, time <=7. As to conditions: in vivo. Type of data set: ADME, organism-based.
Data set [3] can be described thus: Clearance in Sprague-Dawley rat at 2 mg/kg, iv measured up to 24 hrs by LC-MS-MS analysis. In kind it is ADME, organism-based. The settings on record: in vivo.
Data set [4] is described as follows: Volume of distribution at steady state in Sprague-Dawley rat at 2 mg/kg, iv measured up to 24 hrs by LC-MS-MS analysis. In kind it is ADME, organism-based. As to conditions: in vivo, read-out: Vdss.
Data set [5] can be described thus: Cmax in Sprague-Dawley rat at 10 mg/kg, po measured up to 24 hrs by LC-MS-MS analysis. In kind it is ADME, organism-based. Details: route oral, dose 10 mg/kg, time <=24. As to conditions: in vivo.
Data set [6] is described as follows: Oral bioavailability in Sprague-Dawley rat at 10 mg/kg measured up to 24 hrs by LC-MS-MS analysis. Type of data set: ADME, organism-based. The settings on record: in vivo.
Data set [7] can be described thus: Half life in Sprague-Dawley rat at 10 mg/kg, po measured up to 24 hrs by LC-MS-MS analysis. In kind it is ADME, organism-based. The settings on record: in vivo.
The nature of data set [8]: Half life in Sprague-Dawley rat at 2 mg/kg, iv measured up to 24 hrs by LC-MS-MS analysis. Type of data set: ADME, organism-based. As to conditions: in vivo.
Data set [9] in a line: AUC(0 to 24 hrs) in Sprague-Dawley rat at 10 mg/kg, po measured up to 24 hrs by LC-MS-MS analysis. In kind it is ADME, organism-based. Details: route oral, dose 10 mg/kg, time <=24. The settings on record: in vivo.
The subject of data set [10] is Rattus norvegicus. The experiment in a line: In vivo antagonist activity at […] receptor in Sprague-Dawley rat assessed as reversal of sulprostone induced reduction in circulating insulin levels at 10 times Ki, administered as iv infusion measured up to 30 mins after glucose administration by glucose tolerance test. Type of data set: functional, organism-based. As to conditions: time min <=30.

Data set [11] deals with T1, Prostaglandin E2 receptor EP3 subtype (Rattus norvegicus, UniProt P34980).
T1 sequence (P34980 whole entry): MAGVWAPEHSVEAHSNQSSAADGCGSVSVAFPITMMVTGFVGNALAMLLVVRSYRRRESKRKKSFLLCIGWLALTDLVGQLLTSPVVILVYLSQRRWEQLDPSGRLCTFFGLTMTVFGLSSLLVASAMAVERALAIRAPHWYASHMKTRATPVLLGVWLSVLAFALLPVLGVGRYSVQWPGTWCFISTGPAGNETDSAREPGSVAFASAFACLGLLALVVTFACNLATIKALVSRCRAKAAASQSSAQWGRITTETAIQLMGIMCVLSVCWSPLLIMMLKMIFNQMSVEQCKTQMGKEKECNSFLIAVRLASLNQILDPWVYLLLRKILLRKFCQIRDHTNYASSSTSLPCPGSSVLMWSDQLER
The data set is described as follows: Binding affinity to rat EP3 receptor assessed as inhibition constant.

The nature of data set [12]: AUClast in Sprague-Dawley rat at 10 mg/kg, po measured up to 24 hrs by LC-MS-MS analysis. In kind it is ADME, organism-based. The settings on record: in vivo. The arrangement: route oral, dose 10 mg/kg, time <=24.
Data set [13] has as its target T2, Prostaglandin E2 receptor EP1 subtype (Homo sapiens, UniProt P34995).
T2 sequence (P34995 whole entry): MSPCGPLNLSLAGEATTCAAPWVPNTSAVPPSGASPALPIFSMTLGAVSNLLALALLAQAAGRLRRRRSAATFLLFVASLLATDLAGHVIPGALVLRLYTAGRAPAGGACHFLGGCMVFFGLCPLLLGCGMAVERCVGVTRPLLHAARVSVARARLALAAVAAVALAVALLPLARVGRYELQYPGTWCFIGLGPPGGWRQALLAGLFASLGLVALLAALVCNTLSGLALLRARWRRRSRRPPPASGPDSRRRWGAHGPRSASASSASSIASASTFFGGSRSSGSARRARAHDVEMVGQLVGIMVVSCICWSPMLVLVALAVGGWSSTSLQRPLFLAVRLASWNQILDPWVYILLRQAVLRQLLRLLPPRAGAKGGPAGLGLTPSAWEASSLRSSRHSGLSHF
The data set is described as follows: Binding affinity to human EP1 receptor assessed as inhibition constant.

Data set [14] has as its target Prostaglandin E2 receptor EP4 subtype (Homo sapiens, UniProt P35408). The data set is described as follows: Binding affinity to human EP4 receptor assessed as inhibition constant.
In data set [15] the target is Prostaglandin E2 receptor EP2 subtype (Homo sapiens, UniProt P43116). The data set is described as follows: Binding affinity to human EP2 receptor assessed as inhibition constant.
Prostaglandin E2 receptor EP2 subtype, sequence (P43116 whole entry, the tested form may be a part): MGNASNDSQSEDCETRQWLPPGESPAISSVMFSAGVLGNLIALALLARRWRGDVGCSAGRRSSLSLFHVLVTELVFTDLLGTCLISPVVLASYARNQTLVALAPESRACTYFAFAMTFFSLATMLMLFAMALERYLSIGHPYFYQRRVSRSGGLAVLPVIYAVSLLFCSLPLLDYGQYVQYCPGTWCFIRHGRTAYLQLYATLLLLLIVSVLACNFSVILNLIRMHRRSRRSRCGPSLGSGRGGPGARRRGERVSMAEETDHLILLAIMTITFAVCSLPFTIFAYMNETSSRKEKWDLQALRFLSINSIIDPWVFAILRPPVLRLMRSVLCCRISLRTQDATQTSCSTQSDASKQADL
Data set [16] can be described thus: Free plasma concentration in Sprague-Dawley rat at 10 times Ki administered as iv infusion measured after 2 to 50 mins. Type of data set: ADME, organism-based. As to conditions: in vivo, time 2-50 min.

Prostaglandin E2 receptor EP4 subtype, sequence (P35408 whole entry): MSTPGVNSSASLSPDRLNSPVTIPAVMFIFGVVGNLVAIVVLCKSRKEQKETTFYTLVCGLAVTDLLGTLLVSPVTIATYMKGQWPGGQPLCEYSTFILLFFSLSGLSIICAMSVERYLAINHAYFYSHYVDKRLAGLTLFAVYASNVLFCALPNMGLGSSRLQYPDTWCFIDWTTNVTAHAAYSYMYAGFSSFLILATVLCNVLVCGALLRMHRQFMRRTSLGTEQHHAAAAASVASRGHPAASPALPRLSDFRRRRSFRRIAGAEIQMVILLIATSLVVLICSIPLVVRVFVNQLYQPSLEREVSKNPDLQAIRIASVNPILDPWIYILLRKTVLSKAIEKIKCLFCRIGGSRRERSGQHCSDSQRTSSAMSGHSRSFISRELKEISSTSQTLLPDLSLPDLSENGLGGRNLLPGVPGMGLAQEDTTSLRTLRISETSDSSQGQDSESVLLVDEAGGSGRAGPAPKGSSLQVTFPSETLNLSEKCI

Consider `O=C(NC/C=C1\CCCc2cnn(-c3ccc(C(F)(F)F)cc3)c21)NS(=O)(=O)c1cc(Cl)c(Cl)s1`, for which the peak concentration (Cmax) in [1] was found to be 1.54 µM. The AUC(0-t) at 7 h in [2] was found to be 7.39 µM·h.
For the compound `O=C(NS(=O)(=O)c1ccc(Cl)cc1)OC/C=C1\CCCc2cnn(Cc3ccc(Cl)cc3Cl)c21`, the clearance in data set [3] was 1.28 L/h/kg. In data set [4], the Vd turned out to be 4.61 L/kg. In data set [5], this compound displayed a Cmax of 0.75 µM. In [6], the bioavailability came out at 46%. The half-life was 3.6 h in data set [7] and 3.5 h in data set [8]. The compound also returned an AUC(0-t) in data set [9] of 7.43 µM·h.
The compound `COc1ccc(Cl)cc1S(=O)(=O)NC(=O)NC/C(F)=C1\CCCc2cnn(Cc3ccc(Cl)cc3Cl)c21` yielded a maximum concentration (Cmax) in data set [1] of 4.75 µM. In [2], this compound showed an area under the curve AUC(0-t) at 7 h of 10.8 µM·h.
Take `O=C(NC/C(F)=C1\CCCc2cnn(Cc3ccc(Cl)cc3Cl)c21)NS(=O)(=O)c1cc(Cl)c(Cl)s1`: the highest concentration (Cmax) in data set [1] is 3.82 µM. This compound yielded an exposure AUC(0-t) at 7 h in [2] of 16.6 µM·h.
`O=C(NS(=O)(=O)c1cc(Cl)c(Cl)s1)OC/C=C1\CCCc2cnn(Cc3ccc(Cl)cc3Cl)c21`: the clearance in data set [3] turned out to be 4.3 L/h/kg. The Vd in [4] worked out at 3.45 L/kg. In data set [5], the Cmax amounted to 0.13 µM. In data set [6], this compound returned a bioavailability of 24%. Moreover, the half-life in data set [7] was 2.3 h; in data set [8], 2.1 h. In addition, the AUC(0-t) in data set [9] was 0.89 µM·h.
`O=C(NC/C=C1\CCCc2cnn(C3CCN(c4ccc(F)cc4)CC3)c21)NS(=O)(=O)c1cc(Cl)c(Cl)s1`: in data set [1], the peak concentration (Cmax) is 0.13 µM. In [2], this compound gave an exposure AUC(0-t) at 7 h of 0.73 µM·h.
The compound `Cc1cc(S(=O)(=O)NC(=O)NC/C(F)=C2\CCCc3cnn(Cc4ccc(Cl)cc4Cl)c32)sc1Cl` displayed a clearance in data set [3] of 0.0996 L/h/kg. Besides, the Vd in data set [4] amounted to 0.491 L/kg. Also, the Cmax in [5] worked out at 9.95 µM; in [1], 11.2 µM. Further, the bioavailability in [6] is 55%. In addition, the results for the half-life in data set [7] and in data set [8] were 3.2 h and 5.9 h, respectively. In data set [2], this compound registered an AUC(0-t) at 7 h of 57.8 µM·h. Besides, the AUC(0-t) in data set [9] is 96.2 µM·h.
For `Cc1ncc(S(=O)(=O)NC(=O)NC/C=C2\CCCc3cnn(Cc4ccc(Cl)cc4Cl)c32)s1`, the highest level in data set [1] (Cmax) was 0.51 µM. This compound also returned an exposure AUC(0-t) at 7 h in data set [2] of 2.4 µM·h.
As for `O=C(NC/C=C1\CCCc2cnn(Cc3ccc(Cl)cc3Cl)c21)NS(=O)(=O)c1ccc(Cl)cc1`, in data set [3], the clearance was 0.894 L/h/kg. Moreover, the Vd in data set [4] came to 1.44 L/kg. The compound further displayed a Cmax in data set [5] of 1.11 µM. The result in data set [10] was Active. The Ki is 0.0036 µM in data set [11], 3.5 µM in data set [13], above 10 µM in data set [14] and above 10 µM in [15]. Moreover, in data set [6], the bioavailability was found to be 25%. Further, the half-life in [7] is 2.8 h; in [8] it was 1.9 h. For the same compound, the AUC(0-t) at 24 h in data set [12] was determined as 5.27 µM·h. The compound also showed an AUC(0-t) in data set [9] of 5.27 µM·h. Further, the “Cp(f)” value in data set [16] was determined as 0.036 µM.
The compound `COc1ccc(S(=O)(=O)NC(=O)NC/C(F)=C2\CCCc3cnn(Cc4ccc(Cl)cc4Cl)c32)cc1Cl` had a clearance in data set [3] of 0.156 L/h/kg. Further, the Vd in data set [4] came to 0.346 L/kg. Also, the highest concentration (Cmax) was 9.39 µM in [5] and 7.1 µM in [1]. In addition, the bioavailability in data set [6] turned out to be 44%. Besides, the half-life in data set [7] was 2.9 h; in data set [8] it was 6.2 h. In [2], the AUC(0-t) at 7 h came out at 31.9 µM·h. In [9], this compound had an exposure AUC(0-t) of 49 µM·h.
As to `O=C(NC/C=C1\CCCc2cnn(Cc3ccc(Cl)cc3Cl)c21)NS(=O)(=O)c1cc(Cl)c(Cl)s1`, the clearance in [3] amounted to 4.87 L/h/kg. For the same compound, the Vd in [4] was found to be 2.21 L/kg. Further, the Cmax in [5] worked out at 1.67 µM. The compound also registered a bioavailability in data set [6] of 84%. Further, the half-life in data set [7] is 2.8 h; in data set [8], 0.79 h. In [12], this compound yielded an AUC(0-t) at 24 h of 2.75 µM·h. The AUC(0-t) in data set [9] was 2.75 µM·h.
Take `O=C(NC/C(F)=C1\CCCc2cnn(-c3ccc(C(F)(F)F)cc3)c21)NS(=O)(=O)c1cc(Cl)c(Cl)s1`: in data set [1], the peak level (Cmax) was 0.7 µM. In [2], the exposure AUC(0-t) at 7 h was 3.68 µM·h.
